Measurements reported in the SangsterLogP compilation.

Assay: method code SF, from Hansch, C. & Leo, A. (1987). Log P database [Dataset]. Pomona College Medicinal Chemistry Project.
Conditions: not given

SMILES | logP
Nc1ccc(OC(=O)CNC(=O)c2ccccc2)cc1 | 1.01
NCCc1c[nH]c2ccc(O)cc12 | 0.21
Cn1ccc(=O)cc1 | -1.22
O=C1OC(O)c2ccccc21 (centres undefined) | 0.57
CC(=O)Nc1ccc2c(c1)S(=O)(=O)c1ccccc1C2=O | 2.35
CCOC(=O)C(F)(F)C(F)(F)F | 2.12
O=P(c1ccccc1)(c1ccccc1)c1ccccc1 | 2.85
Cc1ccc(Nc2ccc(O)c3c2C(=O)c2ccccc2C3=O)cc1 | 3.12
Nc1nc(=O)c2ccccc2o1 | 0.27
CCOC(C)OCC | 1.49
C=C(C)C1Cc2c(ccc3c2OC2COc4cc(OC)c(OC)cc4C2C3=O)O1 (centres undefined) | 4.1
CCCS | 1.81
O=c1[nH]c(=O)n([C@H]2C[C@H](O)[C@@H](CO)O2)cc1F | -1.16
CCCCNC(=O)n1c(NC(=O)OC)nc2ccccc21 | 2.42
N#Cc1c[nH]c2ccccc12 | 2.32
Cc1ccc([N+]([O-])=NC#N)cc1 | 2.39
Cc1cccc(/N=N/N(C)C)c1 | 2.85
CCc1ccc(OC(C)=O)cc1 | 2.56
COC(=O)C=Cc1ccccc1 | 2.62
CCOP(=S)(OCC)SCn1nnc2ccccc2c1=O | 3.4
CCOP(=O)(OCC)SCSCC | 2.07
N#CN=[N+]([O-])c1ccc(Br)cc1 | 2.5
CCCCOc1cccc(C=C(C(=O)OCC)C(=O)OCC)c1 | 4.03

SMILES | logP
OC12CC3CC(CC(C3)C1)C2 | 2.14
c1cscn1 | 0.44
CC(=O)c1ccccc1Cl | 2.09
Cc1c([N+](=O)[O-])cc(C(N)=O)cc1[N+](=O)[O-] | 0.68
O=c1[nH]c(=O)c2[nH]cnc2[nH]1 | -0.73
O=Cc1cccc(C(F)(F)F)c1 | 2.47
CCOS(=O)(=O)OCC | 1.14
O=NN(CCCl)C(=O)NC(C(=O)O)C1CCCCC1 (centres undefined) | -0.63
O=C(OCCOCCO)c1ccccc1 | 1.16
COCC(=O)Nc1ccc(Cl)c(Cl)c1 | 2.77
O=C(NO)c1ccccc1 | 0.26
O=C(C(=O)c1ccco1)c1ccco1 | 1.24
CCOP(=O)(OCC)Oc1ccc(SC)cc1Cl | 3.05
CC(=O)Nc1cccc(C(C)=O)c1 | 1.1
CN(C)C(=O)c1ccsc1 | 0.55
O=[N+]([O-])c1ccc(C=Cc2nccn2Cc2ccccc2)o1 | 1.55
c1ccc(-c2ccc(C(c3ccccc3)n3ccnc3)cc2)cc1 (centres undefined) | 4.77
COC(=O)c1cccc(O)c1 | 1.89
[O-][N+](=Cc1c(Cl)cccc1Cl)c1ccccc1 | 2.16
c1ccc(-c2ccc3ccccc3n2)cc1 | 3.9
CC(=O)C(=Cc1ccc(Br)cc1)C(C)=O | 2.75
S=c1cccc[nH]1 | -0.13
O=[N+]([O-])c1ccc2[nH]c(CCCCCc3nc4cc([N+](=O)[O-])ccc4[nH]3)nc2c1 | 1.97

SMILES | logP
O=S1(=O)NC(C2CC2)=Nc2cc(Cl)ccc21 | 1.98
O=S1(=O)NC(C2CCC2)=Nc2ccc(Cl)cc21 | 2.24
CN(C)C(=O)Cc1ccco1 | 0.01
Cn1nnnc1SCc1ccccc1 | 1.63
CCCOc1ccccc1 | 3.18
CN(C(=O)CCI)c1ccc(S(=O)(=O)N(C)C)cc1 | 1.39
COc1ccccc1C=C(C(C)=O)C(C)=O | 1.73
CCCC(=O)Nc1ccccc1 | 2.05
O=c1nc[nH]c(=O)[nH]1 | -1.87
CNC(=O)ON=CC(C)(C)[N+](=O)[O-] | 0.36
CCOC(=O)CNCCCCCSc1c2[nH]cnc2nc[n+]1[O-] | 0.87
Nc1ncco1 | -0.18
CC(=O)Oc1ccccc1F | 1.76
CC(C)(C)c1ccc(C(N)=O)cc1 | 2.51
Cn1ncc2cc([N+](=O)[O-])cc([N+](=O)[O-])c21 | 1.63
CO[C@H]1/C=C\O[C@@]2(C)Oc3c(C)c(O)c4c(O)c(c(/C=N/OCCCc5ccccc5)c(O)c4c3C2=O)NC(=O)/C(C)=C\C=C/[C@H](C)[C@H](O)[C@@H](C)[C@@H](O)[C@@H](C)[C@H](OC(C)=O)[C@@H]1C | 4.83
CC(=O)Nc1ccc(F)cc1 | 1.43
O=S1(=O)NC(CCl)=Nc2cc(Cl)ccc21 | 1.68
CNC(=S)NCc1ccccc1 | 1.35
CSc1ccccc1NC(C)=O | 1.53
O=[N+]([O-])c1cn[nH]c1 | 0.59
CC1=Nc2ccc(I)cc2S(=O)(=O)N1 | 1.61
CCCC=O | 0.88

SMILES | logP
COC1=C[C@@]23CCCN2CCc2cc4c(cc2[C@@H]3[C@@H]1O)OCO4 | 0.84
C[C@]12CCC(=O)C=C1CC[C@@H]1[C@@H]2CC[C@]2(C)C(=O)CC[C@@H]12 | 2.75
O=C(NN=Cc1ccccc1)c1ccccc1 | 2.56
CC(=O)OC1OC(C)C(OC(C)=O)C(OC(C)=O)C1NC(=O)N(CCCl)N=O (centres undefined) | 1.32
O=C(NC1CC1)c1cc(N2CC2)c([N+](=O)[O-])cc1[N+](=O)[O-] | 0.74
OC(c1ccccc1)(c1ccccc1)c1ccccc1 | 3.68
COc1cc2c(c(OC)c1OC)-c1ccc(OC)c(=O)cc1[C@@H](N)CC2 | 0.67
CCCCCC(C)O (centres undefined) | 2.31
CC(=O)Oc1ccccc1Br | 2.2
COc1ccc2c(c1)N=C(C)NS2(=O)=O | 0.56
CCOC(=O)[C@H](O)[C@@H](O)C(=O)OCC | -0.29
CNP(=O)(OC)Oc1ccc(SC)cc1 (centres undefined) | 1.81
CC1OC(=O)c2ccccc21 (centres undefined) | 1.41
CC(C)(C)c1cc(O)ccc1[N+](=O)[O-] | 3.65
Cc1cc(C)cc(OC(=O)CNC(=O)c2ccccc2)c1 | 3.4
CC(=O)C(F)(F)F | 0.2
CN(C)c1ccc(N=C2C=CC(=O)C=C2)cc1 | 2.02
CC(C)(C)N | 0.4
S=c1cc[nH]cc1 | 0.2
CCOCCOC(=O)C(C#N)=C(CC)Nc1ccc(N)cc1 | 2.27

Same assay, conditions: pH 1.0

SMILES | logD
CC(=O)c1ccccc1C(=O)O | 0.81

Same assay, conditions: pH 3.0

SMILES | logD
CSCC1=C(C(=O)O)N2C(=O)C(NC(=O)Cc3cccs3)C2SC1 (centres undefined) | 1.01

Same assay, conditions: pH 6.8

SMILES | logD
CC(=O)OCOC(=O)C1=C(CSC2(C)N=NN=N2)CSC2C(NC(=O)C(O)c3ccccc3)C(=O)N12 (centres undefined) | 0.75

Same assay, conditions: pH 7.0

SMILES | logD
CC(=O)c1ccc(C#N)cc1 | 1.22
CC(=O)c1cccc(C(C)=O)c1 | 1.43
CC(=O)Oc1ccc(C(C)=O)cc1 | 1.29

Same assay, conditions: pH 7.4

SMILES | logD
O=c1cn[nH]c(=O)[nH]1 | -1.37
COc1cc2c(c(OC)c1OC)-c1ccc(SC)c(=O)cc1[C@@H](N[C@@H]1O[C@H](CO)[C@@H](O)[C@H](O)[C@H]1O)CC2 | 1.25
CCN(CC)c1c(C)n(-c2ccccc2)c(=O)n(CC)c1=O | 2.78
Nc1nc(S)c2ncn(C3CC(O)C(CO)O3)c2n1 (centres undefined) | -0.56
c1cc2n(n1)CCN2 | -0.25
CNN=CCCc1ccccc1 | 1
O=NN(CCCl)C(=O)N[C@@H]1[C@@H](O)[C@H](O)[C@@H](CO)O[C@H]1O | -1.02
Cc1c(NCC(C)C)c(=O)n(-c2ccccc2)c(=O)n1C | 1.48

Same assay, conditions: pH 11.0

SMILES | logD
CN(C)C=CCCc1cccnc1 | 1.68

Same assay, conditions: pH 13.0

SMILES | logD
Cc1ccc(N2C(N)=NC(N)=NC2(C)C)cc1 | 0.85
CS(=O)(=O)Oc1ccccc1Cc1cnc(N)nc1N | 0.71
CN(C)CC(O)c1ccccc1 (centres undefined) | 1.54
COc1ccc(OC)c(Cc2cnc3nc(N)nc(N)c3c2C)c1 | 2.13
CC1(C)N=C(N)N=C(N)N1c1ccc(Br)cc1 | 1.09
